Laboratory results: patent US6818439B1, “Methods for administration of recombinant gene delivery vehicles for treatment of hemophilia and other disorders” (priority 1994, dated 2004)
Where two headings read alike, the source gives them in different places.

Key:
liver = assay: Peroxisome proliferator induced liver transduction by beta galactosidase vector, XGAL staining; format: in vivo, Balb/C mice
Method: On day 4, 200 ul beta galactosidase retroviral vector (1E9 cfu/ml, DA-Bengal) was injected via tail vein. On day 7, the mice were sacrificed, tissues were fixed in 2% formaldehyde/PBS for 24 hr, and blocked into slices of 2-5 mm. Sections were rinsed in PBS and stained in fresh XGAL solution (5 mM potassium ferricyanide/5 mM potassium ferrocyanide/2 mM MgCl2/0.5mg/ml XGAL in DMF (Gold Scientific)/1×PBS). Tissue was embedded in paraffin (−50 degrees), sectioned at 5 microns (PML, San Diego), and counterstained with Hematoxylin/Eosin.

[1] = Ganciclovir toxicity in the mouse dose study; format: in vivo, mice
CT26TK Neo [2] = assay: Ganciclovir on in vivo tumor growth of CT26TK Neo; set-up: species or system mice; conditions: 62.5 mg/Kg I.P. twice daily, S.C. tumor
Method: (§1) In order to determine whether ganciclovir has an effect on the growth of unmodified CT26 tumor cells in vivo, 2 groups of 7 mice are injected S.C. with 2×10^5 unmodified CT26 cells and 2 groups of 7 mice are injected S.C. with 2×10^5 CT26TK Neo cells. Seven days after tumor implantation, one group of CT26 injected mice and one group of CT26TK Neo injected mice are placed on a twice daily (AM and PM) regimen of I.P. ganciclovir at 62.5 mg/Kg. These mice are treated for 12 days or until the CT26TK Neo injected animals have no detectable tumor burden. Tumor growth is monitored over a three week period.

CT26TK Neo cells = assay: Effect of ganciclovir on CT26TK Neo cells (TK-3 transduced), cell counts; conditions: lowest dose 6.25 μg/ml, twice per day for four consecutive days
Method: CT26 cells are transduced with G-pseudotyped TK-3 vector. Twenty-four hours after adding the viral supernatant, the CT26 cells are placed under G-418 selection (450 µg/ml). After 10 days incubation, a G-418 selected pool is obtained and designated CT26TK Neo. CM26 TK Neo cells were seeded into six 10 cm^2 plates at a density of 2.5×10^6 per plate. As controls, each of two other cell types, CT26 and CT26 beta-gal (this cell line was transduced with a retroviral vector carrying the reporter gene β-galactosidase from E. coli.), were also seeded into six 10 cm^2 plates as controls. Five plates of each cell type were treated twice per day for four consecutive days with medium containing ganciclovir concentrations of 100 μg/ml, 50 μg/ml, 25 μg/ml, 12.5 μg/ml and 6.25 μg/ml. One plate of each cell type was left untreated. Afterwards, the cells were removed from each dish using trypsin-EDTA, resuspended in DMEM with 10% FBS and counted.

CT26 beta-gal cells = assay: Effect of ganciclovir on CT26 beta-gal cells, cell counts; format: cell-based, mouse
Description: (§2) One plate of each cell type was left untreated.

CT26 = assay: Ganciclovir on in vivo tumor growth of unmodified CT26; set-up: species or system mice; conditions: 62.5 mg/Kg I.P. twice daily, S.C. tumor
Method: as §1

CT26 cells = assay: Effect of ganciclovir on unmodified CT26 cells, cell counts; format: cell-based, mouse
Description: as §2

CT26TK Neo [3] = assay: Ganciclovir dose study in mice injected with CT26TK Neo cells (tumor regression); format: in vivo
Method: In order to test whether in vivo transduction of a murine tumor could be used to treat the disease, an experiment was performed to determine the optimal concentration of ganciclovir necessary to eliminate a tumor that was transduced and selected in vitro to assure 100% transduction. Twelve groups of 3 mice each are injected with 2×10^5 CT26TK Neo cells. Six groups of mice are injected with these cells intraperitoneally (I.P.) and six groups of mice are injected subcutaneously (S.C.). Two other groups of 3 mice each are injected with 2×10^5 unmodified CT26 cells (as a control) either I.P. or S.C.
Ten days after the injection of the CT26 or CT26TK Neo cells into these groups of mice, several concentrations of ganciclovir treatment are initiated. Each dose regimen consists of 2 daily AM and PM I.P. injections of ganciclovir.
Tumor measurements were made for 23 days FIG. 11). CT26TK Neo grew only slightly slower than unmodified CT26 in the absence of ganciclovir. […] After 24 days, the I.P. injected animals were sacrificed and evaluated. The optimal concentration for anti-tumor effect was similar whether the tumor was grown I.P. or S.C.

hepatitis B = conditions: cited from earlier work
hepatitis D = conditions: cited from earlier work
hepatitis C = conditions: six months after termination of treatment; cited from earlier work
[4] = 6.25 μg/ml or 12.5 μg/ml, twice per day for four days

Cc1cccc(Nc2cc(Cl)nc(SCC(=O)O)n2)c1C [WY 14643]
blue cells in liver (background staining) (liver; WY liver: mitogen, no vector): No blue cells | blue cells in liver, periportally and on the periphery (liver; group I: IP 500 μl of 15 mg/ml once per day for 4 days plus beta galactosidase vector): Numerous blue cells | blue cells in liver, periportally and on the periphery (liver; group II: gavage 200 μl of 15 mg/ml once per day for 4 days plus beta galactosidase vector): Numerous blue cells

Nc1nc(O)c2ncn(COC(CO)CO)c2n1 [ganciclovir]
tolerability ([1]; 15.63 mg/Kg, 31.25 mg/Kg and 62.5 mg/Kg groups, treated for an additional 7 days): able to tolerate the treatment | toxicity observed ([1]; 62.5 mg/Kg groups): not life threatening and reversible | survival (toxic effects) ([1]; 125 mg/Kg, 250 mg/Kg and 500 mg/Kg groups, 2 daily I.P. injections, after 5 days): dead due to the toxic effects | tumor burden (CT26TK Neo [2]): dramatic decrease in tumor burden | cytotoxic effect on CT26 TKneo cells (CT26TK Neo cells): dramatic cytotoxic effect | effect on cell growth (CT26 beta-gal cells; [4]): did not have an effect | effect on cell growth (CT26 beta-gal cells; beginning at 25 ug/ml): dose-dependent decrease in cell growth | tumor size versus untreated mice (CT26): somewhat smaller | effect on cell growth (CT26 cells; [4]): did not have an effect | effect on cell growth (CT26 cells; beginning at 25 ug/ml): dose-dependent decrease in cell growth | tumor regression (CT26TK Neo [3]; 15.63 mg/Kg, compared to untreated control groups): Little or no effect | tumor regression (CT26TK Neo [3]; 31.25 mg/Kg): Partial tumor regression | tumor regression (CT26TK Neo [3]; 62.5 mg/Kg regimen, 2 daily I.P. injections): Complete tumor regression

alpha interferon
patients responding to treatment (hepatitis B; patients infected as adults): about 35% | patients responding to treatment (hepatitis B; perinatal infectees): about 10% | responders relapsed (hepatitis D; in vivo): 85-90% | patients responding to therapy (hepatitis D; pilot studies): 25-60% | responders relapsed (hepatitis C): half
